Reference: PubChem BioAssay AID334 (DTP/NCI, 2004)
“And” between values parts separate entries of the source, which are not always exact repeats. Identical values can stand only once. Toxic doses and inconclusive results are not listed.

Test system: CD2F1 mice, intracerebral P388 leukemia, median survival T/C%
Experiment: NCI In Vivo Anticancer Drug Screen. Data for tumor model P388 Leukemia (intracerebral) in CD2F1 (CDF1) mice
Conditions: endpoint: median survival time, higher = longer survival
Description: The antitumor activity of compounds was measured in mice bearing transplantable tumors. Survival or tumor size were measured and the results are expressed as the measurement made in the treated group (T) divided by the measurement made in the vehicle treated control group (C). The tumor model used in this assay is P388 Leukemia (intracerebral) in CD2F1 (CDF1) mice

[1] = dose: 3.0 mg/kg/injection, schedule: Q01DX009 (ip), vehicle: saline with Tween-80
[2] = dose: 6.0 mg/kg/injection, schedule: Q01DX009 (ip), vehicle: saline with Tween-80
[3] = dose: 12.5 mg/kg/injection, schedule: Q01DX009 (ip), vehicle: saline with Tween-80
[4] = dose: 25.0 mg/kg/injection, schedule: Q01DX009 (ip), vehicle: saline with Tween-80
[5] = dose: 32.0 mg/kg/injection, schedule: Q01DX005 (ip), vehicle: saline
[6] = dose: 128.0 mg/kg/injection, schedule: Q01DX005 (ip), vehicle: saline

In the case of `CCCCCCCCCCCCCCCCCC(=O)N[C@@H](Cc1ccc(N(CCCl)CCCl)cc1)C(=O)NCCCCCC`, the T/C (dose: 2.12 mg/kg/injection, schedule: Q03HX008 (ip), vehicle: saline) was 105 % of control, the T/C (dose: 4.24 mg/kg/injection, schedule: Q03HX008 (ip), vehicle: saline) was 105 % of control and the T/C (dose: 8.48 mg/kg/injection, schedule: Q03HX008 (ip), vehicle: saline) was 105 % of control. For the same compound, the T/C (dose: 16.95 mg/kg/injection, schedule: Q03HX008 (ip), vehicle: saline) was 94 % of control, the T/C (dose: 33.9 mg/kg/injection, schedule: Q03HX008 (ip), vehicle: saline) was 105 % of control and the T/C (dose: 67.8 mg/kg/injection, schedule: Q03HX008 (ip), vehicle: saline) was 110 % of control.

`CC(C)=CCC1=C(O)c2ccccc2C(=O)C1=O` was tested, and the T/C (dose: 32.0 mg/kg/injection, schedule: Q01DX005 (ip), vehicle: Klucel (hydroxypropylcellulose) (HPC)) was 104 % of control, the T/C (dose: 64.0 mg/kg/injection, schedule: Q01DX005 (ip), vehicle: Klucel (hydroxypropylcellulose) (HPC)) was 104 % of control and the T/C (dose: 128.0 mg/kg/injection, schedule: Q01DX005 (ip), vehicle: Klucel (hydroxypropylcellulose) (HPC)) was 95 % of control. The T/C (dose: 256.0 mg/kg/injection, schedule: Q01DX005 (ip), vehicle: Klucel (hydroxypropylcellulose) (HPC)) was 92 % of control.

`CN(C)c1nc(N(C)C)nc(N(C)C)n1` was tested, and the T/C (dose: 100.0 mg/kg/injection, schedule: Q01DX005 (ip), vehicle: saline with Tween-80) was 104 % of control, the T/C (dose: 100.0 mg/kg/injection, schedule: Q01DX005 (ip), vehicle: suspension in saline) was 100 % of control and the T/C (dose: 200.0 mg/kg/injection, schedule: Q01DX005 (ip), vehicle: saline with Tween-80) was 111 % of control. The T/C (dose: 200.0 mg/kg/injection, schedule: Q01DX005 (ip), vehicle: suspension in saline) was 107 % of control, the T/C (dose: 400.0 mg/kg/injection, schedule: Q01DX005 (ip), vehicle: saline with Tween-80) was 111 % of control and the T/C (dose: 400.0 mg/kg/injection, schedule: Q01DX005 (ip), vehicle: suspension in saline) was 89 % of control.

`O=NN(CCCl)C(=O)NC1CCC(=O)NC1=O` (stereo unspecified) was tested, and the T/C [1] was 221 % of control, the T/C (dose: 4.0 mg/kg/injection, schedule: Q01DX001 (ip), vehicle: saline) was 114 % of control and the T/C (dose: 4.0 mg/kg/injection, schedule: Q01DX009 (ip), vehicle: saline with Tween-80) was 242 % of control. The T/C [2] was 250 % of control, the T/C (dose: 8.0 mg/kg/injection, schedule: Q01DX001 (ip), vehicle: saline) was 156 % of control and the T/C (dose: 16.0 mg/kg/injection, schedule: Q01DX001 (ip), vehicle: saline) was 212 % of control. For the same compound, the T/C (dose: 32.0 mg/kg/injection, schedule: Q01DX001 (ip), vehicle: saline) was 262 % of control and the T/C (dose: 64.0 mg/kg/injection, schedule: Q01DX001 (ip), vehicle: saline) was 212 % of control.

With `CCCCCCCCCCCCCC(=O)OC12CC(C)C3(O)C(C=C(CO)C(O)C4(O)C(=O)C(C)=CC43)C1C2(C)C` (stereo unspecified) the T/C (dose: 62.5 micrograms/kg/injection, schedule: Q01DX009 (ip), vehicle: acetone) was 103 % of control, the T/C (dose: 125.0 micrograms/kg/injection, schedule: Q01DX009 (ip), vehicle: acetone) was 98 % of control and the T/C (dose: 250.0 micrograms/kg/injection, schedule: Q01DX009 (ip), vehicle: acetone) was 88 % of control. The T/C (dose: 500.0 micrograms/kg/injection, schedule: Q01DX009 (ip), vehicle: acetone) was 94 % of control.

`CC1(C)N=C(N)N=C(N)N1c1ccc(CNC(=O)Nc2cccc(S(=O)(=O)F)c2)cc1` was tested, and the T/C (dose: 150.0 mg/kg/injection, schedule: Q04DX003 (ip), vehicle: saline) was 122 % of control and the T/C (dose: 225.0 mg/kg/injection, schedule: Q04DX003 (ip), vehicle: saline) was 116 % of control.

`CC1(CO)C(O)CCC2(C)C1CCC1CC3CC12CCC3(O)CO` (stereo unspecified) was tested, and the T/C [3] was 94 % of control, the T/C [4] was 113 % of control and the T/C (dose: 50.0 mg/kg/injection, schedule: Q01DX009 (ip), vehicle: saline with Tween-80) was 100 % of control. For the same compound, the T/C (dose: 100.0 mg/kg/injection, schedule: Q01DX009 (ip), vehicle: saline with Tween-80) was 94 % of control and the T/C (dose: 200.0 mg/kg/injection, schedule: Q01DX009 (ip), vehicle: saline with Tween-80) was 96 % of control.

For `CC1(C)N=C(N)N=C(N)N1c1ccc(OCc2ccc(C(=O)Nc3cccc(S(=O)(=O)F)c3)cc2)c(Cl)c1`, the T/C (dose: 50.0 mg/kg/injection, schedule: Q04DX003 (ip), vehicle: saline) was 100 % of control, the T/C (dose: 100.0 mg/kg/injection, schedule: Q04DX003 (ip), vehicle: saline) was 94 % of control and the T/C (dose: 200.0 mg/kg/injection, schedule: Q04DX003 (ip), vehicle: saline) was 105 % of control. For the same compound, the T/C (dose: 400.0 mg/kg/injection, schedule: Q04DX003 (ip), vehicle: saline) was 88 % of control.

In the case of `CCC(=O)O[C@H]1CC[C@H]2[C@@H]3CCC4=CC(=O)CC[C@]4(C)[C@H]3CC[C@]12C`, the T/C (dose: 8.0 mg/kg/injection, schedule: Q01DX009 (ip), vehicle: saline with Tween-80) was 105 % of control, the T/C (dose: 8.0 mg/kg/injection, schedule: Q01DX009 (ip), vehicle: saline) was 178 % of control and the T/C (dose: 16.0 mg/kg/injection, schedule: Q01DX009 (ip), vehicle: saline with Tween-80) was 108 % of control. For the same compound, the T/C (dose: 16.0 mg/kg/injection, schedule: Q01DX009 (ip), vehicle: saline) was 106 % of control, the T/C (dose: 32.0 mg/kg/injection, schedule: Q01DX009 (ip), vehicle: saline with Tween-80) was 105 % of control and the T/C (dose: 32.0 mg/kg/injection, schedule: Q01DX009 (ip), vehicle: saline) was 99 % of control. For the same compound, the T/C (dose: 64.0 mg/kg/injection, schedule: Q01DX009 (ip), vehicle: saline with Tween-80) was 117 % of control, the T/C (dose: 64.0 mg/kg/injection, schedule: Q01DX009 (ip), vehicle: saline) was 100 % of control and the T/C (dose: 128.0 mg/kg/injection, schedule: Q01DX009 (ip), vehicle: saline with Tween-80) was 100 % of control. The T/C (dose: 128.0 mg/kg/injection, schedule: Q01DX009 (ip), vehicle: saline) was 100 % of control, the T/C (dose: 256.0 mg/kg/injection, schedule: Q01DX009 (ip), vehicle: saline with Tween-80) was 107 % of control and the T/C (dose: 256.0 mg/kg/injection, schedule: Q01DX009 (ip), vehicle: saline) was 100 % of control. The T/C (dose: 512.0 mg/kg/injection, schedule: Q01DX009 (ip), vehicle: saline with Tween-80) was 106 % of control and the T/C (dose: 512.0 mg/kg/injection, schedule: Q01DX009 (ip), vehicle: saline) was 109 % of control.

`Nc1nncs1` was tested, and the T/C (dose: 64.0 mg/kg/injection, schedule: Q01DX005 (ip), vehicle: saline with Tween-80) was 119 % of control, the T/C (dose: 128.0 mg/kg/injection, schedule: Q01DX005 (ip), vehicle: saline with Tween-80) was 160 % of control and 169 % of control and the T/C (dose: 256.0 mg/kg/injection, schedule: Q01DX005 (ip), vehicle: saline with Tween-80) was 180 % of control.

With `CS(C)=O` the T/C (dose: 1000.0 mg/kg/injection, schedule: Q01DX005 (ip), vehicle: saline) was 104 % of control and 107 % of control, the T/C (dose: 2000.0 mg/kg/injection, schedule: Q01DX005 (ip), vehicle: saline) was 100 % of control and 104 % of control and the T/C (dose: 4000.0 mg/kg/injection, schedule: Q01DX005 (ip), vehicle: saline) was 100 % of control and 105 % of control. For the same compound, the T/C (dose: 8000.0 mg/kg/injection, schedule: Q01DX005 (ip), vehicle: saline) was 105 % of control and 108 % of control.

With `CN(Cc1cnc2nc(N)nc(N)c2n1)c1c(Cl)cc(C(=O)NC(CCC(=O)O)C(=O)O)cc1Cl` (stereo unspecified) the T/C (dose: 16.0 mg/kg/injection, schedule: Q01DX005 (ip), vehicle: saline) was 115 % of control, the T/C [5] was 121 % of control and the T/C [6] was 86 % of control.

For `O=[N+]([O-])O.[Ga]`, the T/C [5] was 111 % of control, the T/C (dose: 64.0 mg/kg/injection, schedule: Q01DX005 (ip), vehicle: saline) was 111 % of control and the T/C [6] was 104 % of control.

For `CC1(C)N=C(N)N=C(N)N1c1ccc(CCC(=O)Nc2ccc(S(=O)(=O)F)cc2)c(Cl)c1`, the T/C (dose: 6.25 mg/kg/injection, schedule: Q01DX009 (ip), vehicle: saline) was 100 % of control, the T/C (dose: 12.5 mg/kg/injection, schedule: Q01DX009 (ip), vehicle: saline) was 111 % of control and the T/C (dose: 25.0 mg/kg/injection, schedule: Q01DX009 (ip), vehicle: saline) was 105 % of control. For the same compound, the T/C (dose: 50.0 mg/kg/injection, schedule: Q01DX009 (ip), vehicle: saline) was 105 % of control.

For `CC(C)(C)N1CC1CNC(=O)C(=O)NCC1CN1C(C)(C)C` (stereo unspecified), the T/C [1] was 101 % of control, the T/C (dose: 3.12 mg/kg/injection, schedule: Q01DX009 (ip), vehicle: saline with Tween-80) was 104 % of control and 107 % of control and the T/C [2] was 121 % of control. For the same compound, the T/C (dose: 6.25 mg/kg/injection, schedule: Q01DX009 (ip), vehicle: saline with Tween-80) was 117 % of control and 111 % of control, the T/C [3] was 177 % of control and the T/C [4] was 105 % of control.
